From patent US8324390B2, “Tetrazole-substituted anthranilamides as pesticides” (Bayer CropScience AG, priority 2008, dated 2012)
Like-named read-outs stand apart in the source and are kept apart here.

Legend:
[1] = tested on: caterpillars of the armyworm (Spodoptera frugiperda); assay: Spodoptera frugiperda test (SPODFR spray treatment); assay type: in vivo; conditions: Spodoptera frugiperda, foliar, read-out: effect in % (caterpillars killed)
From the text: (§1) Solvent: 78.0 parts by weight of acetone

[2] = tested on: larvae of the mustard beetle (Phaedon cochleariae); assay: Phaedon test (PHAECO spray treatment); conditions: Phaedon cochleariae, in Brassica rapa, foliar, read-out: effect in % (beetle larvae killed)
[3] = log P determination by HPLC (EEC Directive 79/831 Annex V.A8); assay type: physicochemical
Experimental: The measurements were carried out using an Agilent 1100 LC system with a 50*4.6 Zorbax Eclipse C18 1.8 μm column (oven temperature 55° C., flow rate 2.0 ml/min).
The following mobile phases were used:
Mobile phase A: acetonitrile+1000 μl of formic acid/l
Mobile phase B: Millipore water+900 μl of formic acid/l

[4] = tested on: green peach aphid (Myzus persicae); assay: Myzus test (MYZUPE spray treatment); assay type: in vivo; conditions: Myzus persicae, foliar, read-out: effect in % (aphids killed)
From the text: Solvent: 78 parts by weight of acetone
as §1

[5] = application rate 100 g/ha, maize leaf discs
[6] = reversed-phase HPLC, Zorbax Eclipse C18 column, determined by HPLC according to EEC Directive 79/831 Annex V.A8, read-out: log P
[7] = application rate 100 g/ha, Chinese cabbage leaf discs

Row | Compound | pest or weed control at 100 g/ha ([1]; in Zea mays) | pest or weed control at 100 g/ha [2] | chromatographic logP ([3]; log P) | pest or weed control at 100 g/ha ([4]; in Brassica rapa) | pest or weed control at 100 g/ha [1, 5] | chromatographic logP [3, 6] | pest or weed control at 100 g/ha [4, 7]
1 | CC(C)NC(=O)c1cc(Cl)cc(Cl)c1NC(=O)c1cc(Cn2nnnc2C(F)F)nn1-c1ncccc1Cl [Example 466] | ≥ 80% | ≥ 80% | 2.71 | ≥ 80% |  |  | 
2 | Cc1cc(C#N)cc(C(=O)NC(C)C2CC2)c1NC(=O)c1cc(Cn2nnnc2C(F)F)nn1-c1ncccc1Cl (centres unmarked) [Example 467] | ≥ 80% | ≥ 80% | 2.58 | ≥ 80% |  |  | 
3 | CNC(=O)c1cc(Cl)cc(C)c1NC(=O)c1cc(Cn2nnnc2C(F)F)nn1-c1ncccc1Cl [Example 470] | ≥ 80% | ≥ 80% | 2.26 | ≥ 80% |  |  | 
4 | CC(C)(C)NC(=O)c1cc(Cl)cc(Cl)c1NC(=O)c1cc(Cn2nnnc2C(F)F)nn1-c1ncccc1Cl [Example 471] | ≥ 80% | ≥ 80% | 3.05 | ≥ 80% |  |  | 
5 | CNC(=O)c1cc(C#N)cc(C)c1NC(=O)c1cc(Cn2nnnc2C(F)F)nn1-c1ncccc1Cl [Example 472] | ≥ 80% | ≥ 80% | 1.97 | ≥ 80% |  |  | 
6 | Cc1cc(Cl)cc(C(=O)NC(C)(C)C)c1NC(=O)c1cc(Cn2nnnc2C(F)F)nn1-c1ncccc1Cl [Example 475] | ≥ 80% | ≥ 80% | 3.09 | ≥ 80% |  |  | 
7 | CNC(=O)c1cc(Cl)cc(Cl)c1NC(=O)c1cc(Cn2nnnc2C(F)F)nn1-c1ncccc1Cl [Example 476] | ≥ 80% | ≥ 80% | 2.22 | ≥ 80% |  |  | 
8 | CNC(=O)c1cc(C#N)cc(C)c1NC(=O)c1cc(Cn2nnnc2C(F)(F)F)nn1-c1ncccc1Br [Example 477] |  | ≥ 80% |  |  | ≥ 80% | 2.47 | ≥ 80%
9 | CCNC(=O)c1cc(C#N)cc(C)c1NC(=O)c1cc(Cn2nnnc2C(F)(F)F)nn1-c1ncccc1Br [Example 478] |  | ≥ 80% |  |  | ≥ 80% | 2.66 | ≥ 80%
10 | Cc1cc(C#N)cc(C(N)=O)c1NC(=O)c1cc(Cn2nnnc2C(F)(F)F)nn1-c1ncccc1Br [Example 479] |  | ≥ 80% |  |  | ≥ 80% | 2.28 | ≥ 80%
11 | CNC(=O)c1cc(Cl)cc(C)c1NC(=O)c1cc(Cn2nnnc2C(F)(F)F)nn1-c1ncccc1Br [Example 480] |  | ≥ 80% |  |  | ≥ 80% | 2.79 | ≥ 80%
12 | Cc1cc(Cl)cc(C(N)=O)c1NC(=O)c1cc(Cn2nnnc2C(F)(F)F)nn1-c1ncccc1Br [Example 481] |  | ≥ 80% |  |  | ≥ 80% | 2.43 | ≥ 80%
13 | Cc1cc(C#N)cc(C(=O)NC(C)(C)C)c1NC(=O)c1cc(Cn2nnnc2C(F)(F)F)nn1-c1ncccc1Br [Example 483] |  | ≥ 80% |  |  | ≥ 80% | 3.07 | ≥ 80%
14 | Cc1cc(Cl)cc(C(=O)NC(C)(C)C)c1NC(=O)c1cc(Cn2nnnc2C(F)(F)F)nn1-c1ncccc1Br [Example 484] |  | ≥ 80% |  |  | ≥ 80% | 3.52 | ≥ 80%
15 | Cc1cc(Cl)cc(C(=O)NC(C)C)c1NC(=O)c1cc(Cn2nnnc2C(F)(F)F)nn1-c1ncccc1Br [Example 485] |  | ≥ 80% |  |  | ≥ 80% | 3.14 | ≥ 80%
16 | Cc1cc(Cl)cc(C(=O)NCC#N)c1NC(=O)c1cc(Cn2nnnc2C(F)(F)F)nn1-c1ncccc1Br [Example 486] |  | ≥ 80% |  |  | ≥ 80% | 2.64 | ≥ 80%
17 | Cc1cc(Cl)cc(C(=O)NC2CC2)c1NC(=O)c1cc(Cn2nnnc2C(F)(F)F)nn1-c1ncccc1Br [Example 487] |  | ≥ 80% |  |  | ≥ 80% | 2.9 | ≥ 80%
18 | Cc1cc(C#N)cc(C(=O)NC(C)(C)C)c1NC(=O)c1cc(Cn2nnnc2C(F)(F)F)nn1-c1ccccc1C(F)(F)F [Example 488] |  | ≥ 80% |  |  | ≥ 80% | 3.58 | ≥ 80%

Row | Compound | pest or weed control at 100 g/ha ([1]; in Zea mays) | pest or weed control at 100 g/ha [2] | chromatographic logP ([3]; log P) | pest or weed control at 100 g/ha ([4]; in Brassica rapa) | pest or weed control at 100 g/ha [1, 5] | chromatographic logP [3, 6] | pest or weed control at 100 g/ha [4, 7]
19 | Cc1cc(C#N)cc(C(=O)NC(C)C)c1NC(=O)c1cc(Cn2nnnc2C(F)(F)F)nn1-c1ccccc1Cl [Example 491] |  | ≥ 80% |  |  | ≥ 80% | 3.25 | ≥ 80%
20 | CCNC(=O)c1cc(C#N)cc(C)c1NC(=O)c1cc(Cn2nnnc2C(F)(F)F)nn1-c1ccccc1Cl [Example 492] |  | ≥ 80% |  |  | ≥ 80% | 3.01 | ≥ 80%
21 | CCNC(=O)c1cc(Cl)cc(C)c1NC(=O)c1cc(Cn2nnnc2C(F)(F)F)nn1-c1ncccc1Br [Example 494] |  | ≥ 80% |  |  | ≥ 80% | 2.88 | ≥ 80%
22 | Cc1cc(I)cc(C(=O)NC2CC2)c1NC(=O)c1cc(Cn2nnnc2C(F)(F)F)nn1-c1ncccc1Br [Example 495] |  | ≥ 80% |  |  | ≥ 80% | 3.11 | ≥ 80%
23 | Cc1cc(I)cc(C(N)=O)c1NC(=O)c1cc(Cn2nnnc2C(F)(F)F)nn1-c1ncccc1Br [Example 497] |  | ≥ 80% |  |  | ≥ 80% | 2.63 | ≥ 80%
24 | Cc1cc(Br)cc(C(N)=O)c1NC(=O)c1cc(Cn2nnnc2C(F)(F)F)nn1-c1ncccc1Br [Example 498] |  | ≥ 80% |  |  | ≥ 80% | 2.51 | ≥ 80%
25 | Cc1cc(C#N)cc(C(=O)NC(C)C)c1NC(=O)c1cc(Cn2nnnc2C(F)(C(F)(F)F)C(F)(F)F)nn1-c1ncccc1Cl [Example 500] |  | ≥ 80% |  |  | ≥ 80% | 3.5 | ≥ 80%
26 | Cc1cc(Br)cc(C(=O)NC(C)C)c1NC(=O)c1cc(Cn2nnnc2C(F)(F)F)nn1-c1ncccc1Br [Example 501] |  | ≥ 80% |  |  | ≥ 80% | 3.27 | ≥ 80%
27 | CCNC(=O)c1cc(I)cc(C)c1NC(=O)c1cc(Cn2nnnc2C(F)(F)F)nn1-c1ncccc1Br [Example 503] |  | ≥ 80% |  |  | ≥ 80% | 3.16 | ≥ 80%
28 | Cc1cc(I)cc(C(=O)NC(C)C)c1NC(=O)c1cc(Cn2nnnc2C(F)(F)F)nn1-c1ncccc1Br [Example 504] |  | ≥ 80% |  |  | ≥ 80% | 3.41 | ≥ 80%
29 | CCNC(=O)c1cc(Br)cc(C)c1NC(=O)c1cc(Cn2nnnc2C(F)(F)F)nn1-c1ncccc1Br [Example 505] |  | ≥ 80% |  |  | ≥ 80% | 3.02 | ≥ 80%
30 | CNC(=O)c1cc(I)cc(C)c1NC(=O)c1cc(Cn2nnnc2C(F)(F)F)nn1-c1ncccc1Br [Example 506] |  | ≥ 80% |  |  | ≥ 80% | 2.91 | ≥ 80%
31 | Cc1cc(Br)cc(C(=O)NC(C)(C)C)c1NC(=O)c1cc(Cn2nnnc2C(F)(F)F)nn1-c1ncccc1Br [Example 507] |  | ≥ 80% |  |  | ≥ 80% | 3.65 | ≥ 80%
32 | Cc1cc(C#N)cc(C(=O)NC(C)(C)C)c1NC(=O)c1cc(Cn2nnnc2C(F)(F)F)nn1-c1ncccc1F [Example 509] |  | ≥ 80% |  |  | ≥ 80% | 2.92 | ≥ 80%
33 | CNC(=O)c1cc(Cl)cc(C)c1NC(=O)c1cc(C(C)n2nnnc2C(F)(F)F)nn1-c1ncccc1Cl (centres unmarked) [Example 510] | ≥ 80% | ≥ 80% | 2.86 | ≥ 80% |  |  | 
34 | Cc1cc(Cl)cc(C(=O)NC(C)(C)C)c1NC(=O)c1cc(C(C)n2nnnc2C(F)(F)F)nn1-c1ncccc1Cl (centres unmarked) [Example 511] | ≥ 80% | ≥ 80% | 3.75 | ≥ 80% |  |  | 
35 | Cc1cc(Cl)cc(C(=O)NC(C)C)c1NC(=O)c1cc(Cn2nnnc2C(F)(F)C(F)(F)F)nn1-c1ncccc1Br [Example 513] |  | ≥ 80% |  |  | ≥ 80% | 3.54 | ≥ 80%
